Laboratory results taken from US9192619B2 (Peking University Third Hospital, priority 2010, dated 2015).
“And” between values parts separate entries of the source, which are not always exact repeats. Equal values may be shown once.

Test system: permanent focal cerebral ischemia model (MCAO)
Test: Permanent focal cerebral ischemia model by middle cerebral artery occlusion (MCAO), infarction size by TTC staining of brain slices
Format: in vivo, Sprague Dawley rats
Details: single rats, 12 h ischemia
Protocol: Experimental conditions: Sprague Dawley rats weighing about 250-300 g with a brain tissue volume of 1.5 mL were used. The subjects were divided into eight groups, and each group had eight rats. […] Efficacy validation: two hours after ECS administration and one hour after intraperitoneal injection, a permanent focal cerebral ischemia model was made by middle cerebral artery occlusion (MCAO). The brains of rats from each group were removed 12 hours after cerebral ischemia. The brain slices were obtained by cutting the brain at every 2 mm (5 slices from each rat). Then the slices were stained with 2,3,5-triphenyl-2H-tetrazolium chloride (TTC) for evaluating the cerebral infarction size and the effectiveness of administration of the drug via ECS.

How did the Infarction percentages (CDPC 25 mM via brain ECS (caudate nucleus), 0.2 μL/min, 2 μL, MCAO 2 h after administration) turn out when `C[N+](C)(C)CCOP(=O)(O)OP(=O)([O-])OC[C@H]1O[C@@H](n2ccc(N)nc2=O)[C@H](O)[C@@H]1O` [CDPC, citicoline] was run?
Its Infarction percentages is 33.7% and 5.6% and 18.6% and 34.1% and 38.1% and 42% and 24.9% and 22.8%.

And the Infarction percentages (CDPC 40 mM via brain ECS, 0.2 μL/min, 2 μL, MCAO 2 h after administration)?
The Infarction percentages was 2.3% and 6.7% and 2.2% and 2.9% and 6.9% and 3.6% (2×) and 5.3%.

What about the Infarction percentages (CDPC 50 mM via brain ECS, 0.2 μL/min, 2 μL, MCAO 2 h after administration) of the same compound?
The Infarction percentages was 1.3% and 5.7% and 3% and 1.7% and 3.7% and 4.8% and 5% and 7.3%.

What about the Infarction percentages (CDPC 60 mM via brain ECS, 0.2 μL/min, 2 μL, MCAO 2 h after administration) of the same compound?
Its Infarction percentages is 2.3% and 3.7% and 3.6% and 1.7% and 6.7% and 8.8% and 3.5% and 4.2%.

And the Infarction percentages (CDPC 75 mM via brain ECS, 0.2 μL/min, 2 μL, MCAO 2 h after administration)?
Its Infarction percentages is 31.2% and 35.8% and 4.0% and 37.8% and 16.1% and 29.8%.

What about the Infarction percentages (CDPC 100 mM via brain ECS, 0.2 μL/min, 2 μL, MCAO 2 h after administration) of the same compound?
Its Infarction percentages is 29.1% and 35.9% and 20.7% and 8.1% and 38.8% and 20.6% and 11.5% and 41.6%.

What about the Infarction percentages (CDPC 245 mM via brain ECS, 0.2 μL/min, 2 μL, MCAO 2 h after administration) of the same compound?
The Infarction percentages was 24.8% and 51.2% and 14.8% and 20% and 26.7% and 18.1% and 48.3% and 33.4%.

And the Infarction percentages (CDPC 1000 mM intraperitoneal, 1 mL (about 4 mL/kg), 1 mL/min, MCAO 1 h after administration)?
Its Infarction percentages is 30.6% and 26.4% and 10.7% and 5.2% and 25.5% and 27.0% and 33.9% and 32.3%.
